What was measured:
green foxtail [1] = assay: Test C preemergence; format: in vivo, Setaria viridis; details: 0 to 100 scale (0 no effect, 100 complete control)
How it was run: (§1)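 Visual injury score, 0–100 (100 = complete control), taken 10 days after treatment relative to untreated controls. Pre: directed spray onto soil over sown seeds. Post: foliar spray at one- to two-leaf stage, 2–10 cm. Solvent/surfactant formulation; loam–sand soil; greenhouse.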

ducksalad = assay: Test D flooded paddy test; format: in vivo, Heteranthera limosa; details: 250 g ai/ha, applied to paddy water, visual rating after 13 to 14 days, scale 0 to 100 (0 no effect, 100 complete control)
How it was run: (§2)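 Visual ratings from 0, meaning no effect, to 100, meaning complete control, were assigned against untreated controls 13 to 14 days after compounds were added to the floodwater of pots kept 3 cm deep, with plants at the 2-leaf stage.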

wheat [2] = assay: Test C preemergence; format: in vivo, Triticum aestivum; details: 0 to 100 scale (0 no effect, 100 complete control)
How it was run: as §1

ryegrass, Italian [3] = assay: Test C postemergence; format: in vivo, Lolium multiflorum; details: 10 days
How it was run: as §1

soybean [4] = assay: Test C preemergence; format: in vivo, Glycine max; details: 0 to 100 scale (0 no effect, 100 complete control)
How it was run: as §1

kochia [5] = assay: Test C preemergence; format: in vivo, Bassia scoparia; details: 0 to 100 scale (0 no effect, 100 complete control)
How it was run: as §1

barnyardgrass [6] = assay: Test C postemergence; format: in vivo, Echinochloa crusgalli; details: 10 days
How it was run: as §1

green foxtail [7] = assay: Test C postemergence; format: in vivo, Setaria viridis; details: 10 days
How it was run: as §1

soybean [8] = assay: Test C postemergence; format: in vivo, Glycine max; details: 10 days
How it was run: as §1

ryegrass, Italian [9] = assay: Test C preemergence; format: in vivo, Lolium multiflorum; details: 0 to 100 scale (0 no effect, 100 complete control)
How it was run: as §1

corn [10] = assay: Test C preemergence; format: in vivo, Zea mays; details: 0 to 100 scale (0 no effect, 100 complete control)
How it was run: as §1

sedge, umbrella = assay: Test D flooded paddy test; format: in vivo, Cyperus difformis; details: 250 g ai/ha, applied to paddy water, visual rating after 13 to 14 days, scale 0 to 100 (0 no effect, 100 complete control)
How it was run: as §2

oat, wild [11] = assay: Test C preemergence; format: in vivo, Avena fatua; details: 0 to 100 scale (0 no effect, 100 complete control)
How it was run: as §1

blackgrass [12] = assay: Test C postemergence; format: in vivo, Alopecurus myosuroides; details: 10 days
How it was run: as §1

galium = assay: Test C postemergence; format: in vivo, Galium aparine; details: 10 days
How it was run: as §1

rice = assay: Test D flooded paddy test; format: in vivo, Oryza sativa; details: 250 g ai/ha, applied to paddy water, visual rating after 13 to 14 days, scale 0 to 100 (0 no effect, 100 complete control)
How it was run: as §2

kochia [13] = assay: Test C postemergence; format: in vivo, Bassia scoparia; details: 10 days
How it was run: as §1

pigweed, palmer [14] = assay: Test C preemergence; format: in vivo, Amaranthus palmeri; details: 0 to 100 scale (0 no effect, 100 complete control)
How it was run: as §1

barnyardgrass [15] = assay: Test C preemergence; format: in vivo, Echinochloa crusgalli; details: 0 to 100 scale (0 no effect, 100 complete control)
How it was run: as §1

barnyardgrass [16] = assay: Test D flooded paddy test; format: in vivo, Echinochloa crus-galli; details: 250 g ai/ha, applied to paddy water, visual rating after 13 to 14 days, scale 0 to 100 (0 no effect, 100 complete control)
How it was run: as §2

ragweed [17] = assay: Test C preemergence; format: in vivo, Ambrosia artemisiifolia; details: 0 to 100 scale (0 no effect, 100 complete control)
How it was run: as §1

wheat [18] = assay: Test C postemergence; format: in vivo, Triticum aestivum; details: 10 days
How it was run: as §1

pigweed, palmer [19] = assay: Test C postemergence; format: in vivo, Amaranthus palmeri; details: 10 days
How it was run: as §1

oat, wild [20] = assay: Test C postemergence; format: in vivo, Avena fatua; details: 10 days
How it was run: as §1

corn [21] = assay: Test C postemergence; format: in vivo, Zea mays; details: 10 days
How it was run: as §1

ragweed [22] = assay: Test C postemergence; format: in vivo, Ambrosia artemisiifolia; details: 10 days
How it was run: as §1

blackgrass [23] = assay: Test C preemergence; format: in vivo, Alopecurus myosuroides; details: 0 to 100 scale (0 no effect, 100 complete control)
How it was run: as §1

horseweed = assay: Test C postemergence; format: in vivo, Erigeron canadensis; details: 10 days
How it was run: as §1

[24] = Preemergence, 500 g ai/ha, visual rating after 10 days
[25] = Test C, preemergence, 125 g ai/ha
[26] = 125 g ai/ha, postemergence, 0 to 100 scale, 0 no effect, 100 complete control
[27] = Postemergence, 500 g ai/ha, visual 0 to 100 scale (0 no effect, 100 complete control)

## COc1ccc(-n2cnc(C(C)C)n2)cc1C(=O)N1C[C@H](C)Oc2c1cccc2C(F)(F)F [Compound 171]
Green foxtail [1]; [24]
  Plant response rating, Foxtail, Green: 100
Green foxtail [1]; [25]
  Foxtail, Green plant response rating: 100
ducksalad
  Plant response rating, Ducksalad (Flood): 60
Wheat [2]; [24]
  Plant response rating, Wheat: 90
Wheat [2]; [25]
  Wheat plant response rating: 40
ryegrass, Italian [3]; [26]
  Plant response rating, Ryegrass, Italian: 60
ryegrass, Italian [3]; [27]
  Plant response rating, Ryegrass, Italian: 80
Soybean [4]; [24]
  Plant response rating, Soybean: 100
Soybean [4]; [25]
  Soybean plant response rating: 60
Kochia [5]; [24]
  Plant response rating, Kochia: 90
Kochia [5]; [25]
  Kochia plant response rating: 90
Barnyardgrass [6]; [26]
  Plant response rating, Barnyardgrass: 30
Barnyardgrass [6]; [27]
  Plant response rating, Barnyardgrass: 40
Green foxtail [7]; [26]
  Plant response rating, Foxtail, Green: 40
Green foxtail [7]; [27]
  Plant response rating, Foxtail, Green: 50
Soybean [8]; [26]
  Plant response rating, Soybean: 100
Soybean [8]; [27]
  Plant response rating, Soybean: 100
ryegrass, Italian [9]; [24]
  Plant response rating, Ryegrass, Italian: 90
ryegrass, Italian [9]; [25]
  Ryegrass, Italian plant response rating: 50
Corn [10]; [24]
  Plant response rating, Corn: 40
Corn [10]; [25]
  Corn plant response rating: 30
sedge, umbrella
  Plant response rating, Sedge, Umbrella (Flood): 95
oat, wild [11]; [24]
  Plant response rating, Oat, Wild: 80
oat, wild [11]; [25]
  Oat, Wild plant response rating: 70
Blackgrass [12]; [26]
  Plant response rating, Blackgrass: 30
Blackgrass [12]; [27]
  Plant response rating, Blackgrass: 80
galium; [26]
  Plant response rating, Galium: 100
galium; [27]
  Plant response rating, Galium: 100
rice
  Plant response rating, Rice (Flood): 0
Kochia [13]; [26]
  Plant response rating, Kochia: 90
Kochia [13]; [27]
  Plant response rating, Kochia: 90
pigweed, palmer [14]; [24]
  Plant response rating, Pigweed, Palmer: 100
pigweed, palmer [14]; [25]
  Pigweed, Palmer plant response rating: 100
Barnyardgrass [15]; [24]
  Plant response rating, Barnyardgrass: 100
Barnyardgrass [15]; [25]
  Barnyardgrass plant response rating: 90
Barnyardgrass [16]
  Plant response rating, Barnyardgrass (Flood): 0
Ragweed [17]; [24]
  Plant response rating, Ragweed: 90
Ragweed [17]; [25]
  Ragweed plant response rating: 60
Wheat [18]; [26]
  Plant response rating, Wheat: 10
Wheat [18]; [27]
  Plant response rating, Wheat: 40
pigweed, palmer [19]; [26]
  Plant response rating, Pigweed, Palmer: 100
pigweed, palmer [19]; [27]
  Plant response rating, Pigweed, Palmer: 100
oat, wild [20]; [26]
  Plant response rating, Oat, Wild: 10
oat, wild [20]; [27]
  Plant response rating, Oat, Wild: 50
Corn [21]; [26]
  Plant response rating, Corn: 20
Corn [21]; [27]
  Plant response rating, Corn: 20
Ragweed [22]; [26]
  Plant response rating, Ragweed: 60
Ragweed [22]; [27]
  Plant response rating, Ragweed: 70
Blackgrass [23]; [24]
  Plant response rating, Blackgrass: 70
Blackgrass [23]; [25]
  Blackgrass plant response rating: 70
horseweed; [26]
  Plant response rating, Horseweed: 20
horseweed; [27]
  Plant response rating, Horseweed: 80

From patent US20260262643A1, “HERBICIDAL BENZOXAZINES” (FMC CORPORATION, priority 2022, published 2026)
